Measurements taken from US20040266862A1, “Method of improving animal tissue quality by supplementing the animal diet with mixed tocotrienols” (priority 2003, published 2004).
Marks after values point to notes of the source that are not given here.

Tests used:
Assay type in all cases: in vivo
[1] = test system: chickens; assay: 2002 poultry feed test: TBARS content of cooked ground chicken breasts; details: 300 ppm in diet
Source text: (§1) Applicants also assessed the effects of antioxidant supplementation on meat quality in an experiment in which meat from chickens fed one of four dietary treatments was compared. On Jul. 25, 2002, day-old chicks were obtained from a commercial company. The birds were housed in a brooder until Aug. 11, 2002. On Aug. 11, forty-eight birds were randomly allocated to one of four pens (twelve birds per pen). Birds in each pen were offered ad libitum access to one of four treatment diets: control, 300 ppm AT, 300 ppm GT or 150 ppm MT. The MT premix contained a commercially available MT supplement (7.5% alpha-, 12.3% gamma- and 3.0% delta-tocotrienol and 7.2% alpha-tocopherol) mixed with ground corn as the carrier. The total MT premix (ground corn plus MT supplement) represented 2.5% w/w of the finished MT supplemented feed.
(§2) On Sep. 13, 2002 (seven weeks of age) the birds were harvested, identified and frozen at −20C. The birds were stored frozen at −20C for 136-159 days post slaughter. On days 136, 156, 157, 158 and 159 (where available) two birds per dietary treatment were thawed in cold water. Meat was removed from the breasts (pectoralis major muscles) and thighs. Breast meat from each chicken was ground through a 3 mm disc in a Krups Butcher Shop 150W Professional Power Meat Grinder. Thigh meat from two chickens was combined (for days 156, 157, 158 and 159; day 136 thigh meat was kept separate for each bird) and ground in a similar manner. Patties were made (10 g for breast; 60 g for thighs) using a 100×15 mm Petri dish as a mold.
Raw ground chicken breast and thigh patties were cooked in a pre-warmed George Foreman grill for five minutes per breast patty and four minutes per thigh patty. Cooked patties were allowed to cool under refrigeration and then quartered (day 136) or halved (days 156, 157, 158 and 159). Each quarter or half was stored at 2.2C in zip lock baggies for a designated period of time. One quarter was used per sampling period. Sampling periods were 0 hours, 4 hours, 26 hours and 48 hours. Thiobarbituric acid reacting substances (TBARS) analyses was performed according to Ahn et al., and the results are shown in the following two tables.

[2] = test system: swine; assay: 2002 swine feed test: 21-day raw pork loin quality measurements; parameters: key to Hunter a: Hunter a; more positive = redder; key to Hunter b: Hunter b; more positive = more yellow; Hunter a* / Hunter b*: scale not given here; details: for Chop purge, % / Cooking Loss, %: 21-day pork loin; for Hunter L / Hunter L* / Hunter a / Hunter a* / Hunter b / Hunter b* / Loin pH / Loin purge, %: 21-day raw pork loin; for Instron force, kg: force to pierce loin chop
Source text: (§3) Applicants conducted a second swine feeding trial to further determine the effects on meat quality of supplementation of a swine diet with alpha-tocopherol (AT), gamma-tocopherol (GT) or mixed tocotrienols (MT). Seventy-two barrows (˜75 lbs.) were transported to the Pioneer Livestock Nutrition Center (PLNC) and randomly placed into individual pens with water and feed provided ad libitum. The pigs received a common diet for seven days. On the eighth day the pigs were weighed individually and a uniform group of sixty pigs with an average body weight of about 75 pounds was selected. The pigs were randomly assigned one of five dietary treatments with 12 pigs per treatment. The feeding trial was initiated on Mar. 12, 2002 and ended on Jun. 19, 2002.
(§4) The pigs were fed a corn-soybean meal diet formulated to provide adequate levels of all nutrients. In addition, one of five dietary treatments was assigned to each group: control, 300 ppm AT, 450 ppm GT, 150 ppm MT, and 300 ppm MT. To each diet a corn oil premix and a ground corn premix were added with the corn oil premix as a carrier for the supplemental tocopherols and the ground corn premix as the carrier for the MT. The MT supplement was obtained commercially from Fuji Chemical Industries (U.S.A.) Inc. of Robbinsville, N.J., and contained 7.5% alpha-, 12.3% gamma- and 3.0% delta-tocotrienol, as well as 7.2% alpha-tocopherol.
Approximately twenty-one days after slaughter the loins were removed from vacuum bags and weighed. The liquid that had accumulated in the bags during storage was measured to calculate 21-day purge. Loin pH was measured at three locations by carefully inserting a glass probe into the mid-point of the anterior, mid and posterior thirds of each loin. As expected, measurement location (blade, chop or shoulder) affected loin pH, Hunter L, L* and a* values.
The Hunter L, a and b values were measured with a Hunter laboratory system for color evaluation. Hunter L is a measurement of the lightness of an object, and may be thought of as the light reflectance from the surface of an object. Thus, a higher Hunter L value indicates a lighter color, and an L value of 100 would indicate prefect reflectance from the surface. (The white standard has an L value of 97.21.) An increasingly positive Hunter a value indicates a redder color, and an increasingly positive Hunter b value indicates a more yellow color.

[3] = test system: swine; assay: 2002 swine feed test: 24 hour raw pork loin quality; parameters: Marbling / Fat Firmness / Color Score: scale not given here
Source text: as §3, §4
The pigs were harvested in June 2002 when they had reached an average weight of about 245 pounds. Following a twelve-hour feed withdrawal, the pigs were transported to a commercial processing facility. At the commercial processing facility, individual hot carcass weight, back fat depth and loin depth were measured and recorded on the day of slaughter. Loin pH, loin color value (Minolta L*), Marbling and fat firmness were recorded 24 hours post mortem.

[4] = test system: chickens; assay: 2002 poultry feed test: TBARS content of raw ground chicken breasts; details: 300 ppm in diet
Source text: as §1, §2
(§5) Patties were quartered and each quarter was stored at 2.2C for a designated period of time. One quarter was used per sampling period. Sampling periods for the raw ground meat were day 0, day 3, day 7 and day 10. Thiobarbituric acid reacting substances (TBARS) analyses was performed on the raw ground chicken breasts and thighs according to the procedure of Ahn, D. U., D. G. Olson, C. Jo, X. Chen, C. Wu, and J. I. Lee, “Effect of Muscle Type, Packaging, and Irradiation on Lipid Oxidation, Volatile Production and Color in Raw Pork Patties”, Meat Sci. 49:27-39 (1998).

[5] = test system: chickens; assay: 2002 poultry feed test: TBARS content of raw ground chicken thighs; details: 300 ppm in diet
Source text: as §1, §2, §5

Cc1c(C)c2c(c(C)c1O)CC[C@@](C)(CCC[C@H](C)CCC[C@H](C)CCCC(C)C)O2 [AT, alpha-tocopherol]
TBARS content ([1]; 0 hours at 2.2C): 0.3067 mg Malonaldehyde/kg sample | TBARS content ([1]; 4 hours at 2.2C): 0.4354^b mg Malonaldehyde/kg sample | TBARS content ([1]; 26 hours at 2.2C): 0.3366^b mg Malonaldehyde/kg sample | TBARS content ([1]; 48 hours at 2.2C): 0.4433^b mg Malonaldehyde/kg sample | Chop purge, % ([2]; 300 ppm in diet): 1.97% | Cooking Loss, % ([2]; 300 ppm in diet): 20.11% | Hunter L ([2]; 300 ppm in diet): 46.68 | Hunter L* ([2]; 300 ppm in diet): 53.86 | Hunter a ([2]; 300 ppm in diet): 5.71 | Hunter a* ([2]; 300 ppm in diet): 6.76 | Hunter b ([2]; 300 ppm in diet): 8.60 | Hunter b* ([2]; 300 ppm in diet): 15.77 | Loin pH ([2]; 300 ppm in diet): 5.66 | Loin purge, % ([2]; 300 ppm in diet): 0.99% | Instron force, kg ([2]; 300 ppm in diet): 4.98^b kg | Color Score ([3]; 300 ppm in diet): 3.2 | Fat Firmness ([3]; 300 ppm in diet): 2.3 | Hunter L* ([3]; 300 ppm in diet): 48.89 | Marbling ([3]; 300 ppm in diet): 2.1 | TBARS content ([4]; Day 0 at 2.2C): 0.4569 mg Malonaldehyde/kg sample | TBARS content ([4]; Day 3 at 2.2C): 0.1214 mg Malonaldehyde/kg sample | TBARS content ([4]; Day 7 at 2.2C): 0.1243 mg Malonaldehyde/kg sample | TBARS content ([4]; Day 10 at 2.2C): 0.1151^b mg Malonaldehyde/kg sample | TBARS content ([5]; Day 0 at 2.2C): 0.3438 mg Malonaldehyde/kg sample | TBARS content ([5]; Day 3 at 2.2C): 0.1810 mg Malonaldehyde/kg sample | TBARS content ([5]; Day 7 at 2.2C): 0.2448 mg Malonaldehyde/kg sample | TBARS content ([5]; Day 10 at 2.2C): 0.4482 mg Malonaldehyde/kg sample

Cc1c(O)cc2c(c1C)O[C@](C)(CCC[C@H](C)CCC[C@H](C)CCCC(C)C)CC2 [GT, gamma-tocopherol]
TBARS content ([1]; 0 hours at 2.2C): 0.3809 mg Malonaldehyde/kg sample | TBARS content ([1]; 4 hours at 2.2C): 0.3443^b mg Malonaldehyde/kg sample | TBARS content ([1]; 26 hours at 2.2C): 0.4559^b mg Malonaldehyde/kg sample | TBARS content ([1]; 48 hours at 2.2C): 0.6120^b mg Malonaldehyde/kg sample | Chop purge, % ([2]; 450 ppm in diet): 2.40% | Cooking Loss, % ([2]; 450 ppm in diet): 20.27% | Hunter L ([2]; 450 ppm in diet): 45.47 | Hunter L* ([2]; 450 ppm in diet): 52.53 | Hunter a ([2]; 450 ppm in diet): 6.00 | Hunter a* ([2]; 450 ppm in diet): 7.14 | Hunter b ([2]; 450 ppm in diet): 8.41 | Hunter b* ([2]; 450 ppm in diet): 15.61 | Loin pH ([2]; 450 ppm in diet): 5.67 | Loin purge, % ([2]; 450 ppm in diet): 1.16% | Instron force, kg ([2]; 450 ppm in diet): 5.53^a kg | Color Score ([3]; 450 ppm in diet): 3.1 | Fat Firmness ([3]; 450 ppm in diet): 2.0 | Hunter L* ([3]; 450 ppm in diet): 48.81 | Marbling ([3]; 450 ppm in diet): 1.9 | TBARS content ([4]; Day 0 at 2.2C): 0.3022 mg Malonaldehyde/kg sample | TBARS content ([4]; Day 3 at 2.2C): 0.1926 mg Malonaldehyde/kg sample | TBARS content ([4]; Day 7 at 2.2C): 0.0860 mg Malonaldehyde/kg sample | TBARS content ([4]; Day 10 at 2.2C): 0.1428^b mg Malonaldehyde/kg sample | TBARS content ([5]; Day 0 at 2.2C): 0.2493 mg Malonaldehyde/kg sample | TBARS content ([5]; Day 3 at 2.2C): 0.2010 mg Malonaldehyde/kg sample | TBARS content ([5]; Day 7 at 2.2C): 0.1626 mg Malonaldehyde/kg sample | TBARS content ([5]; Day 10 at 2.2C): 0.3557 mg Malonaldehyde/kg sample
